According to PubChem BioAssay AID248 (DTP/NCI, 2004):
Several values for one entry are separate records, joined by “and”; a condition that tells them apart may be missing. Equal values may be shown once. Inconclusive results and toxic doses are left out.

Test system: L1210 leukemia ip in BDF1 mice, survival T/C
Test: NCI In Vivo Anticancer Drug Screen. Data for tumor model L1210 Leukemia (intraperitoneal) in B6D2F1 (BDF1) mice
Conditions: higher = longer survival
Method in brief: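 Mice bearing the transplanted tumor received compound or vehicle. Survival of the treated group was divided by that of the vehicle-treated control group to give the ratio.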

Structure (SMILES): CC[n+]1ccc(Nc2ccc(NC(=O)c3ccc(Nc4cc[n+](CC)c5ccc(N)cc45)cc3)cc2)cc1
- T/C (endpoint: mean survival time, dose: 0.12 mg/kg/injection, schedule: Q01DX005 (iv), vehicle: water): 101 % of control
- T/C (endpoint: mean survival time, dose: 0.12 mg/kg/injection, schedule: Q04DX003 (iv), vehicle: water): 105 % of control
- T/C (endpoint: mean survival time, dose: 0.25 mg/kg/injection, schedule: Q01DX005 (iv), vehicle: water): 105 % of control
- T/C (endpoint: mean survival time, dose: 0.25 mg/kg/injection, schedule: Q03HX024 (ip), vehicle: water): 113 % of control
- T/C (endpoint: mean survival time, dose: 0.25 mg/kg/injection, schedule: Q04DX003 (iv), vehicle: water): 102 % of control
- T/C (endpoint: mean survival time, dose: 0.5 mg/kg/injection, schedule: Q01DX005 (iv), vehicle: water): 100 % of control and 103 % of control
- T/C (endpoint: mean survival time, dose: 0.5 mg/kg/injection, schedule: Q01DX009 (sc), vehicle: water): 94 % of control
- T/C (endpoint: mean survival time, dose: 0.5 mg/kg/injection, schedule: Q03HX024 (ip), vehicle: water): 157 % of control
- T/C (endpoint: mean survival time, dose: 0.5 mg/kg/injection, schedule: Q03HX024 (oral), vehicle: water): 97 % of control
- T/C (endpoint: mean survival time, dose: 0.5 mg/kg/injection, schedule: Q04DX003 (iv), vehicle: water): 101 % of control
- T/C (endpoint: mean survival time, dose: 0.75 mg/kg/injection, schedule: Q01DX009 (ip), vehicle: saline): 152 % of control and 201 % of control
- T/C (endpoint: mean survival time, dose: 1.0 mg/kg/injection, schedule: Q01DX005 (iv), vehicle: water): 115 % of control
- T/C (endpoint: mean survival time, dose: 1.0 mg/kg/injection, schedule: Q01DX009 (ip), vehicle: water): 180 % of control and 211 % of control
- T/C (endpoint: mean survival time, dose: 1.0 mg/kg/injection, schedule: Q01DX009 (oral), vehicle: water): 103 % of control
- T/C (endpoint: mean survival time, dose: 1.0 mg/kg/injection, schedule: Q01DX009 (sc), vehicle: water): 112 % of control and 122 % of control
- T/C (endpoint: mean survival time, dose: 1.0 mg/kg/injection, schedule: Q03HX016 (ip), vehicle: water): 156 % of control
- T/C (endpoint: mean survival time, dose: 1.0 mg/kg/injection, schedule: Q03HX024 (ip), vehicle: water): 186 % of control and 187 % of control and 208 % of control
- T/C (endpoint: mean survival time, dose: 1.0 mg/kg/injection, schedule: Q03HX024 (oral), vehicle: water): 96 % of control and 101 % of control
- T/C (endpoint: mean survival time, dose: 1.0 mg/kg/injection, schedule: Q03HX024 (sc), vehicle: water): 164 % of control
- T/C (endpoint: mean survival time, dose: 1.0 mg/kg/injection, schedule: Q04DX003 (iv), vehicle: water): 103 % of control
- T/C (endpoint: mean survival time, dose: 1.5 mg/kg/injection, schedule: Q01DX009 (ip), vehicle: saline): 160 % of control and 171 % of control
- T/C (endpoint: mean survival time, dose: 1.9 mg/kg/injection, schedule: Q01DX009 (ip), vehicle: saline): 281 % of control
- T/C (endpoint: mean survival time, dose: 2.0 mg/kg/injection, schedule: Q01DX005 (iv), vehicle: water): 103 % of control
- T/C (endpoint: mean survival time, dose: 2.0 mg/kg/injection, schedule: Q01DX009 (oral), vehicle: water): 103 % of control
- T/C (endpoint: mean survival time, dose: 2.0 mg/kg/injection, schedule: Q01DX009 (sc), vehicle: water): 189 % of control and 206 % of control
- T/C (endpoint: mean survival time, dose: 2.0 mg/kg/injection, schedule: Q03HX016 (ip), vehicle: water): 188 % of control
- T/C (endpoint: mean survival time, dose: 2.0 mg/kg/injection, schedule: Q03HX024 (ip), vehicle: water): 123 % of control and 218 % of control
- T/C (endpoint: mean survival time, dose: 2.0 mg/kg/injection, schedule: Q03HX024 (oral), vehicle: water): 97 % of control and 100 % of control
- T/C (endpoint: mean survival time, dose: 2.0 mg/kg/injection, schedule: Q03HX024 (sc), vehicle: water): 211 % of control
- T/C (endpoint: mean survival time, dose: 2.0 mg/kg/injection, schedule: Q04DX003 (ip), vehicle: water): 113 % of control and 120 % of control
- T/C (endpoint: mean survival time, dose: 2.0 mg/kg/injection, schedule: Q04DX003 (iv), vehicle: water): 105 % of control
- T/C (endpoint: mean survival time, dose: 3.0 mg/kg/injection, schedule: Q01DX009 (ip), vehicle: saline): 274 % of control
- T/C (endpoint: mean survival time, dose: 3.2 mg/kg/injection, schedule: Q01DX009 (ip), vehicle: saline): 313 % of control
- T/C (endpoint: mean survival time, dose: 4.0 mg/kg/injection, schedule: Q01DX001 (ip), vehicle: water): 111 % of control
- T/C (endpoint: mean survival time, dose: 4.0 mg/kg/injection, schedule: Q01DX009 (oral), vehicle: water): 96 % of control
- T/C (endpoint: mean survival time, dose: 4.0 mg/kg/injection, schedule: Q01DX009 (sc), vehicle: water): 116 % of control and 219 % of control
- T/C (endpoint: mean survival time, dose: 4.0 mg/kg/injection, schedule: Q03HX016 (ip), vehicle: water): 271 % of control
- T/C (endpoint: mean survival time, dose: 4.0 mg/kg/injection, schedule: Q03HX024 (ip), vehicle: water): 112 % of control
- T/C (endpoint: mean survival time, dose: 4.0 mg/kg/injection, schedule: Q03HX024 (oral), vehicle: water): 100 % of control and 101 % of control
- T/C (endpoint: mean survival time, dose: 4.0 mg/kg/injection, schedule: Q08DX002 (ip), vehicle: water): 107 % of control
- T/C (endpoint: mean survival time, dose: 4.0 mg/kg/injection, schedule: Q08DX002 (oral), vehicle: water): 101 % of control
- T/C (endpoint: mean survival time, dose: 5.0 mg/kg/injection, schedule: Q01DX009 (oral), vehicle: water): 103 % of control
- T/C (endpoint: mean survival time, dose: 6.0 mg/kg/injection, schedule: Q01DX009 (ip), vehicle: saline): 271 % of control
- T/C (endpoint: mean survival time, dose: 8.0 mg/kg/injection, schedule: Q01DX009 (ip), vehicle: water): 96 % of control
- T/C (endpoint: mean survival time, dose: 8.0 mg/kg/injection, schedule: Q01DX009 (oral), vehicle: water): 104 % of control (2×) and 107 % of control
- T/C (endpoint: mean survival time, dose: 8.0 mg/kg/injection, schedule: Q01DX009 (sc), vehicle: water): 101 % of control and 117 % of control
- T/C (endpoint: mean survival time, dose: 8.0 mg/kg/injection, schedule: Q03HX024 (oral), vehicle: water): 106 % of control
- T/C (endpoint: mean survival time, dose: 8.0 mg/kg/injection, schedule: Q03HX024 (sc), vehicle: water): 104 % of control
- T/C (endpoint: mean survival time, dose: 8.0 mg/kg/injection, schedule: Q04DX003 (ip), vehicle: water): 160 % of control and 164 % of control and 175 % of control
- T/C (endpoint: mean survival time, dose: 9.0 mg/kg/injection, schedule: Q01DX009 (ip), vehicle: saline): 109 % of control
- T/C (endpoint: mean survival time, dose: 10.0 mg/kg/injection, schedule: Q01DX009 (oral), vehicle: water): 103 % of control
- T/C (endpoint: mean survival time, dose: 16.0 mg/kg/injection, schedule: Q01DX009 (ip), vehicle: water): 94 % of control
- T/C (endpoint: mean survival time, dose: 16.0 mg/kg/injection, schedule: Q01DX009 (oral), vehicle: water): 101 % of control
- T/C (endpoint: mean survival time, dose: 16.0 mg/kg/injection, schedule: Q04DX003 (ip), vehicle: water): 177 % of control and 190 % of control and 245 % of control
- T/C (endpoint: mean survival time, dose: 18.0 mg/kg/injection, schedule: Q01DX001 (ip), vehicle: saline): 157 % of control
- T/C (endpoint: mean survival time, dose: 20.0 mg/kg/injection, schedule: Q01DX009 (oral), vehicle: water): 100 % of control
- T/C (endpoint: mean survival time, dose: 25.0 mg/kg/injection, schedule: Q01DX001 (ip), vehicle: saline): 120 % of control
- T/C (endpoint: mean survival time, dose: 32.0 mg/kg/injection, schedule: Q01DX009 (oral), vehicle: water): 103 % of control and 111 % of control
- T/C (endpoint: mean survival time, dose: 32.0 mg/kg/injection, schedule: Q03HX008 (ip), vehicle: water): 190 % of control
- T/C (endpoint: mean survival time, dose: 40.0 mg/kg/injection, schedule: Q01DX009 (oral), vehicle: water): 105 % of control
- T/C (endpoint: mean survival time, dose: 64.0 mg/kg/injection, schedule: Q01DX009 (oral), vehicle: water): 100 % of control and 102 % of control
- T/C (endpoint: mean survival time, dose: 80.0 mg/kg/injection, schedule: Q01DX009 (oral), vehicle: water): 110 % of control
- T/C (endpoint: median survival time, dose: 0.5 mg/kg/injection, schedule: Q03HX024 (ip), vehicle: water): 120 % of control and 122 % of control
- T/C (endpoint: median survival time, dose: 1.3 mg/kg/injection, schedule: Q03HX024 (ip), vehicle: water): 190 % of control and 191 % of control
- T/C (endpoint: median survival time, dose: 2.2 mg/kg/injection, schedule: Q01DX009 (ip), vehicle: water): 195 % of control and 198 % of control
- T/C (endpoint: median survival time, dose: 2.2 mg/kg/injection, schedule: Q03HX024 (ip), vehicle: water): 235 % of control and 247 % of control
- T/C (endpoint: median survival time, dose: 3.6 mg/kg/injection, schedule: Q01DX009 (ip), vehicle: water): 225 % of control and 227 % of control
- T/C (endpoint: median survival time, dose: 6.0 mg/kg/injection, schedule: Q01DX009 (ip), vehicle: water): 170 % of control and 172 % of control
- T/C (endpoint: median survival time, dose: 10.0 mg/kg/injection, schedule: Q01DX009 (ip), vehicle: water): 120 % of control and 122 % of control

Structure (SMILES): OC(c1ccccc1)C1(O)C2CCC1C2 (stereo unspecified)
- T/C (endpoint: mean survival time, dose: 75.0 mg/kg/injection, schedule: Q04DX002 (ip), vehicle: Klucel (hydroxypropylcellulose) (HPC)): 96 % of control
- T/C (endpoint: mean survival time, dose: 150.0 mg/kg/injection, schedule: Q04DX002 (ip), vehicle: Klucel (hydroxypropylcellulose) (HPC)): 104 % of control
- T/C (endpoint: mean survival time, dose: 300.0 mg/kg/injection, schedule: Q04DX002 (ip), vehicle: Klucel (hydroxypropylcellulose) (HPC)): 96 % of control

Structure (SMILES): c1ccc([As](c2ccccc2)c2ccccc2)cc1
- T/C (endpoint: mean survival time, dose: 50.0 mg/kg/injection, schedule: Q01DX001 (ip), vehicle: other): 103 % of control
- T/C (endpoint: mean survival time, dose: 100.0 mg/kg/injection, schedule: Q01DX001 (ip), vehicle: other): 103 % of control
- T/C (endpoint: mean survival time, dose: 200.0 mg/kg/injection, schedule: Q01DX001 (ip), vehicle: other): 97 % of control
- T/C (endpoint: mean survival time, dose: 400.0 mg/kg/injection, schedule: Q01DX001 (ip), vehicle: other): 103 % of control
